Assay results published in patent publication US20180194762A1 (Pharmacyclics LLC, priority 2017, published 2018).
Read-outs that look alike come from different tables or passages of the source.

Columns and labels:
Format in all cases: biochemical
panel of kinases = biological target: T1, panel of kinases (Homo sapiens, UniProt P51813); assay: Inhibition of a panel of kinases (in vitro HotSpot kinase assay, 33P-ATP, 1 μM ATP), other kinases; settings: BMX wild-type, read-out: BMX-WT IC50
T1 sequence (P51813 1-675): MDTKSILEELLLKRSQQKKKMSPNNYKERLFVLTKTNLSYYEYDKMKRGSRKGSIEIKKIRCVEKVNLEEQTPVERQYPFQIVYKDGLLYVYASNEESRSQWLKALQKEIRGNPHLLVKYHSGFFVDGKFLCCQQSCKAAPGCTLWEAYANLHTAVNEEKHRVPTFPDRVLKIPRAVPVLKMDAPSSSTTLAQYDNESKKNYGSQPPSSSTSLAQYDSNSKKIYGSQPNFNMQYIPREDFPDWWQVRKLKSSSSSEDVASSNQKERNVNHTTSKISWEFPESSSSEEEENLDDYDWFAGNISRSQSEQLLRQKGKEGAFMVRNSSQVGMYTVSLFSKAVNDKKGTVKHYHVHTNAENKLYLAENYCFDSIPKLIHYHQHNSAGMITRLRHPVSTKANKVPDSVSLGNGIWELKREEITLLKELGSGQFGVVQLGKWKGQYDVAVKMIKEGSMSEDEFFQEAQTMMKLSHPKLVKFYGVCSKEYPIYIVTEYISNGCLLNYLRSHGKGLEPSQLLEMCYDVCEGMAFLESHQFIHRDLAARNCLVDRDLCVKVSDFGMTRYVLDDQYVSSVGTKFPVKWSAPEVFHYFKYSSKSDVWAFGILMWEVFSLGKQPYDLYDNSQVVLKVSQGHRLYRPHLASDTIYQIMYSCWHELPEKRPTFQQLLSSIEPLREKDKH
Procedure, shortened: (§1)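 Purified kinase enzymes were incubated with an appropriate substrate and 33P-labelled ATP at 1 μM ATP. Inhibition was measured radiometrically from incorporation of the 33P label.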

Btk = biological target: T2, Btk (Homo sapiens, UniProt Q06187); assay: Btk in vitro inhibitory activity (one of Method A TR-FRET, Method B electrophoretic mobility shift, Method C radiometric filter binding)
T2 construct: purified from insect cells as a full-length construct containing a N-terminal 6X-His tag; His6 (N); made in house; host or cells: insect cells (Method C)
T2 sequence (Q06187 whole entry): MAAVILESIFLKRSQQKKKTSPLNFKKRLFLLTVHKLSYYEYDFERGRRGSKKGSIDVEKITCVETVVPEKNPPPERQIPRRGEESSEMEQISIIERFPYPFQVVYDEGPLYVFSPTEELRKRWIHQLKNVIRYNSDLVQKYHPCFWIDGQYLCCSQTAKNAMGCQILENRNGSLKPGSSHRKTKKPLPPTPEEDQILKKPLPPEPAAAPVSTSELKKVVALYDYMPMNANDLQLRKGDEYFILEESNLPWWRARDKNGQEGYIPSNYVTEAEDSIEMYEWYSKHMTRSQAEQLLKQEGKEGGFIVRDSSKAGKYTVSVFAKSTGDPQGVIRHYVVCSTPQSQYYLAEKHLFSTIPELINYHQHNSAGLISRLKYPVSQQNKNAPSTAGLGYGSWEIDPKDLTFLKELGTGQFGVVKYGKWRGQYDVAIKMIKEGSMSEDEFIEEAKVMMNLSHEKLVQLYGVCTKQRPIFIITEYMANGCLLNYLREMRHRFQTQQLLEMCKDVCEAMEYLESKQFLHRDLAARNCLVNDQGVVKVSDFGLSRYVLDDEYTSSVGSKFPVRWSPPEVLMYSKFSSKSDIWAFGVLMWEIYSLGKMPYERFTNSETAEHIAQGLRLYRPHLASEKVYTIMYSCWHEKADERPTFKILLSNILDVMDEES
Procedure, shortened: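 Method A: TR-FRET with 0.5 nM Btk at [ATP]=Km, EDTA-quenched, 665/615 nm ratio; Ki(app) converted to IC50. Method B: 1 nM full-length His6 human BTK, 1 μM FAM peptide, pH 7.5, mobility-shift product/sum ratio, 12-point 4-parameter fit. Method C: radiometric filter binding, 8 nM His-tagged BTK, 0.2 mg/mL poly-Glu-Tyr.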

TEC = biological target: T3, TEC (Homo sapiens, UniProt P42680); assay: Inhibition of a panel of kinases (in vitro HotSpot kinase assay, 33P-ATP, 1 μM ATP); settings: for IC50: HotSpot kinase assay, 1 μM ATP; for TEC/Btk: ratio of TEC IC50 to Btk IC50 (selectivity)
T3 sequence (P42680 1-631): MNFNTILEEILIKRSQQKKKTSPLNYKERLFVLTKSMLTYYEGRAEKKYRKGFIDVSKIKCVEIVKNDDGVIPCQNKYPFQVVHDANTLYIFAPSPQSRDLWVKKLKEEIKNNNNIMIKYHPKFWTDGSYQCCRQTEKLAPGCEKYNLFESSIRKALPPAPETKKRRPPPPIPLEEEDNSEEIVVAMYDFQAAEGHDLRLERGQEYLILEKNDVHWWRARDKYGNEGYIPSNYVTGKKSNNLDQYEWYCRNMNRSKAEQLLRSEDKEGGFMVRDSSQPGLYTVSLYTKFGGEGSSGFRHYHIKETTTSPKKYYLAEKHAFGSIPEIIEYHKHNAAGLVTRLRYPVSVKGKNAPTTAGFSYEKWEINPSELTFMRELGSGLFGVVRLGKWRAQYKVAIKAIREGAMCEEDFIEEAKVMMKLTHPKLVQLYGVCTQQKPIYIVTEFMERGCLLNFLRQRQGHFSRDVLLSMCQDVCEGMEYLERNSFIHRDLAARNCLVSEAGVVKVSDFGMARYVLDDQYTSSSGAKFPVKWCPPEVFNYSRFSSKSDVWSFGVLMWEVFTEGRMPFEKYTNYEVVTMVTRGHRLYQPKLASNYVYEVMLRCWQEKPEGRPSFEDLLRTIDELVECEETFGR
Procedure, shortened: as §1

[1] = method is one of A, B or C, not stated which, read-out: IC50 values against Btk
[2] = wild-type Btk, read-out: Btk-WT IC50

Structure (SMILES): CC(C)(C)c1nc(C(=O)NCc2ccc(-c3ccnc4[nH]nc(NC5CNC5)c34)cc2F)no1 [Example 124, N-[(4-{3-[(azetidin-3-yl)amino]-1H-pyrazolo[3,4-b]pyridin-4-yl}-2-fluorophenyl)methyl]-5-tert-butyl-1,2,4-oxadiazole-3-carboxamide]
- IC50 (panel of kinases): 3350 nM
- IC50 (Btk; [1]): < 10 nM
- IC50 (Btk; [2]): 0.828 nM
- IC50 (TEC): 843 nM
- TEC/Btk (TEC): 1018

Structure (SMILES): C[C@@H]1[C@H](Nc2n[nH]c3nccc(-c4ccc(CNC(=O)c5noc(C(C)(C)C)n5)c(F)c4)c23)CCCN1C(=O)N(C)C [Example 125, (2R,3R)-3-{[4-(4-{[(5-tert-butyl-1,2,4-oxadiaozl-3-yl) formamido]methyl}-3-fluorophenyl)-1H-pyrazolo[3,4-b]pyridin-3-yl]amino}-N,N,2-trimethylpiperidine-1-carboxamide]
- IC50 (panel of kinases): > 10000 nM
- IC50 (Btk; [2]): 89.3 nM
- IC50 (TEC): > 10000 nM
- TEC/Btk (TEC): >100

Structure (SMILES): C[C@@H]1[C@H](Nc2n[nH]c3nccc(-c4ccc(CNC(=O)c5noc(C(C)(C)C)n5)c(F)c4)c23)CCCN1C(=O)C1CC1 [Example 126, 5-tert-butyl-N-{[4-(3-{[(2R,3R)-1-cyclopropanecarbonyl-2-methylpiperidin-3-yl]amino}-1H-pyrazolo[3,4-b]pyridin-4-yl)-2-fluorophenyl]methyl}-1,2,4-oxadiazole-3-carboxamide]
- IC50 (panel of kinases): 5450 nM
- IC50 (Btk; [2]): 38.4 nM
- IC50 (TEC): 4430 nM
- TEC/Btk (TEC): 115

Structure (SMILES): C[C@H]1CC[C@@H](Nc2n[nH]c3nccc(-c4ccc(CNC(=O)c5noc(C(C)(C)C)n5)c(F)c4)c23)CN1C(=O)C1CC1 [Example 127, 5-tert-butyl-N-{[4-(3-{[(3R,6S)-1-cyclopropanecarbonyl-6-methylpiperidin-3-yl]amino}-1H-pyrazolo[3,4-b]pyridin-4-yl)-2-fluorophenyl]methyl}-1,2,4-oxadiazole-3-carboxamide]
- IC50 (panel of kinases): 1550 nM
- IC50 (Btk; [1]): < 10 nM
- IC50 (Btk; [2]): 2.05 nM
- IC50 (TEC): 698 nM
- TEC/Btk (TEC): 340

Structure (SMILES): C[C@H]1CC[C@@H](Nc2n[nH]c3nccc(-c4ccc(CNC(=O)c5noc(C(C)(C)C)n5)c(F)c4)c23)CN1S(=O)(=O)C1CC1 [Example 128, 5-tert-butyl-N-{[4-(3-{[(3R,6S)-1-(cylcopropanesulfonyl)-6-methylpiperidin-3-yl]amino}-1H-pyrazolo[3,4-b]pyridin-4-yl)-2-fluorophenyl]methyl}-1,2,4-oxadiazole-3-carboxamide]
- IC50 (panel of kinases): 1120 nM
- IC50 (Btk; [1]): < 10 nM
- IC50 (Btk; [2]): 1.29 nM
- IC50 (TEC): 500 nM
- TEC/Btk (TEC): 388

Structure (SMILES): CC(C)(C)c1nc(C(=O)NCc2ccc(-c3ccnc4[nH]nc(N[C@@H]5CCNC5)c34)c(F)c2)no1 [Example 129, 5-tert-butyl-N-{[3-fluoro-4-(3-{[(3R)-pyrrolidin-3-yl]amino}-1H-pyrazolo[3,4-b]pyridin-4-yl)phenyl]methyl}-1,2,4-oxadiazole-3-carboxamide]
- IC50 (panel of kinases): > 10000 nM
- IC50 (Btk; [2]): 85.9 nM
- IC50 (TEC): > 10000 nM
- TEC/Btk (TEC): >100

Structure (SMILES): CCC(=O)N1CC(Nc2n[nH]c3nccc(-c4ccc(CNC(=O)c5noc(C(C)(C)C)n5)c(F)c4)c23)C1 [Example 130, 5-tert-butyl-N-[(2-fluoro-4-{3-[(1-propanoylazetidin-3-yl)amino]-1H-pyrazolo[3,4-b]pyridin-4-yl}phenyl)methyl]-1,2,4-oxadiazole-3-carboxamide]
- IC50 (panel of kinases): 3580 nM
- IC50 (Btk; [1]): < 10 nM
- IC50 (Btk; [2]): 1.28 nM
- IC50 (TEC): 1330 nM
- TEC/Btk (TEC): 1039

Structure (SMILES): CC#CC(=O)N1CC(Nc2n[nH]c3nccc(-c4ccc(CNC(=O)c5noc(C(C)(C)C)n5)c(F)c4)c23)C1 [Example 131, N-{[4-(3-{[1-(but-2-ynoyl)azetidin-3-yl]amino}-1H-pyrazolo[3,4-b]pyridin-4-yl)-2-fluorophenyl]methyl}-5-tert-butyl-1,2,4-oxadiazole-3-carboxamide]
- IC50 (panel of kinases): 152 nM
- IC50 (Btk; [1]): < 10 nM
- IC50 (Btk; [2]): 0.201 nM
- IC50 (TEC): 106 nM
- TEC/Btk (TEC): 527

Structure (SMILES): CN(C)C(=O)N[C@@H]1CCN(c2n[nH]c3nccc(-c4ccc(CNC(=O)c5noc(C(C)(C)C)n5)c(F)c4)c23)C1 [Example 132, 5-tert-butyl-N-[(4-{3-[(3R)-3-[(dimethylcarbamoyl)amino]pyrrolidin-1-yl]-1H-pyrazolo[3,4-b]pyridin-4-yl}-2-fluorophenyl)methyl]-1,2,4-oxaidazole-3-carboxamide]
- IC50 (panel of kinases): 1280 nM
- IC50 (Btk; [1]): < 10 nM
- IC50 (Btk; [2]): 0.889 nM
- IC50 (TEC): 806 nM
- TEC/Btk (TEC): 907

Structure (SMILES): C=CC(=O)N1CCC[C@@H](Nc2n[nH]c3nccc(-c4ccc(C5(NC(=O)c6noc(C(C)(C)C)n6)CC5)c(F)c4)c23)C1 [Example 133, 5-tert-butyl-N-{1-[2-fluoro-4-(3-{[(3R)-1-(prop-2-enoyl)piperidin-3-yl]amino}-1H-pyrazolo[3,4-b]pyridin-4-yl)phenyl]cyclopropyl}-1,2,4-oxadiazole-3-carboxamide]
- IC50 (panel of kinases): 111 nM
- IC50 (Btk; [2]): 0.785 nM
- IC50 (TEC): 259 nM
- TEC/Btk (TEC): 330

Structure (SMILES): C=CC(=O)N1CC[C@@H](Nc2n[nH]c3nccc(-c4ccc(C(C)(C)NC(=O)c5noc(C(C)(C)C)n5)cc4)c23)C1 [Example 134, 5-tert-butyl-N-{2-[4-(3-{[(3R)-1-(prop-2-enoyl)pyrrolidin-3-yl]amino}-1H-pyrazolo[3,4-b]pyridin-4-yl)phenyl]propan-2-yl}-1,2,4-oxadiazole-3-carboxamide]
- IC50 (panel of kinases): 224 nM
- IC50 (Btk; [1]): < 10 nM
- IC50 (Btk; [2]): 1.38 nM
- IC50 (TEC): 348 nM
- TEC/Btk (TEC): 252

Structure (SMILES): C=CC(=O)N1CC[C@@H](Nc2n[nH]c3nccc(-c4ccc(CC(=O)Nc5noc(C(C)(C)C)n5)c(F)c4)c23)C1 [Example 135, N-(5-tert-butyl-1,2,4-oxadiazol-3-yl)-2-[2-fluoro-4-(3-{[(3R)-1-(prop-2-enoyl)pyrrolidin-3-yl]amino}-1H-pyrazolo[3,4-b]pyridin-4-yl)phenyl]acetamide]
- IC50 (panel of kinases): 226 nM
- IC50 (Btk; [1]): < 10 nM
- IC50 (Btk; [2]): 8.87 nM
- IC50 (TEC): 475 nM
- TEC/Btk (TEC): 54

Structure (SMILES): C[C@H]1CC[C@@H](Nc2n[nH]c3nccc(-c4ccc(CNC(=O)c5noc(C(C)(C)C)n5)c(F)c4)c23)CN1C(=O)NCC(F)(F)F [Example 138, (2S,5R)-5-{[4-(4-{[(5-tert-butyl-1,2,4-oxadiazol-3-yl)formamido]methyl}-3-fluorophenyl)-1H-pyrazolo[3,4-b]pyridin-3-yl]amino}-2-methyl-N-(2,2,2-trifluoroethyl)piperidine-1-carboxamide]
- IC50 (panel of kinases): > 10000 nM
- IC50 (Btk; [2]): > 10000 nM
- IC50 (TEC): > 10000 nM

Structure (SMILES): C[C@H]1CC[C@@H](Nc2n[nH]c3nccc(-c4ccc(CNC(=O)c5noc(C(C)(C)C)n5)c(F)c4)c23)CN1C(=O)CC#N [Example 140, 5-tert-butyl-N-{[4-(3-{[(3R,6S)-1-(2-cyanoacetyl)-6-methylpiperidin-3-yl]amino}-1H-pyrazolo[3,4-b]pyridin-4-yl)-2-fluorophenyl]methyl}-1,2,4-oxadiazole-3-carboxamide]
- IC50 (panel of kinases): 1770 nM
- IC50 (Btk; [1]): < 10 nM
- IC50 (Btk; [2]): 2.65 nM
- IC50 (TEC): 855 nM
- TEC/Btk (TEC): 323
